# Source: patent publication US10087172B2, “Compounds and their methods of use” (AGIOS PHARMACEUTICALS, INC, priority 2012, dated 2018)
# Target: T1, glutaminase (GAC) (Homo sapiens, UniProt O94925)
# T1 sequence (O94925 55-598 isoform O94925-3 limits assumed): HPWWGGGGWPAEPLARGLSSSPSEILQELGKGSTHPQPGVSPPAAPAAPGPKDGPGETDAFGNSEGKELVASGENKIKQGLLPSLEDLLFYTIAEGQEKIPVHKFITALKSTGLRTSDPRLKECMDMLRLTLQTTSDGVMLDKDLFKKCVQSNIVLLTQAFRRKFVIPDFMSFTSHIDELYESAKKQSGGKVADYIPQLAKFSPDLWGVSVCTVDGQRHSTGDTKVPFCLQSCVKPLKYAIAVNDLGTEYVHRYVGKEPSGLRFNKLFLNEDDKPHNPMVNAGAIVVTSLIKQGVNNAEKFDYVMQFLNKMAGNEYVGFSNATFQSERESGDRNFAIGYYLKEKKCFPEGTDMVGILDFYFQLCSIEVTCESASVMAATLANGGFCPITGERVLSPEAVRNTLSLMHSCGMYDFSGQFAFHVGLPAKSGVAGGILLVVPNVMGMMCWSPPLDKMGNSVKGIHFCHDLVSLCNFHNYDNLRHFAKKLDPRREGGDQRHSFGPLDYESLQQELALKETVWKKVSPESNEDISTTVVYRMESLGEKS
# Experiment: Glutaminase (GAC) coupled endpoint enzymatic assay (glutamate dehydrogenase/diaphorase/resazurin, Ex544/Em590)
# Assay type: biochemical
# Conditions: inhibition of glutaminase, tested in an assay of Example A or Example B; class symbols A-E
# Text: In certain embodiments, exemplary compounds of Formula I include the compounds described in Table 1 and in the Examples. A compound described herein may be tested for its ability to inhibit glutaminase, e.g., by an assay as described in the Examples. For simplicity, the inhibition activity of these compounds is represented as an IC50 tested in an assay of Example A or Example B in Table 1. […] “N/A” refers to compounds wherein the IC50 is unavailable.
# In this example, the enzymatic activity of glutaminase is measured through a coupled endpoint assay. Glutamine and phosphate are supplied to GAC at a concentration equal to Km and AC50, respectively, and GAC concentration is adjusted to give a linear reaction for 60 minutes. The glutamate produced is converted to 2-OG by a kinetic excess of glutamate dehydrogenase. This second step is configured for 2× Km for NAD, since excess NAD is inhibitory. However, a kinetic excess of the third coupling enzyme, diaphorase, recycles NAD from NADH to keep the NAD concentration constant during the timecourse of the assay. Diaphorase, also supplied in kinetic excess, oxidizes NADH produced by GDH back to NAD with the concomitant reduction of rezasurin to the highly fluorescent resorufin. Resorufin in measured after the assay is stopped with SDS by Ex544/Em590. A reduction in the signal indicates inhibition of some component of the coupled enzyme system. Prospective hits are counterscreened against GDH/diaphorase alone to remove hits to the coupling enzyme system in a second assay.
# 2. Buffers 2× Buffer (300 mM NaCl, 100 mM HEPES pH 8.5, 0.1% BSA, 0.5 mM EDTA, 100 mM sodium phosphate pH 8.5) 5× Substrate Mix (1× Buffer final concentration, with 13 mM glutamine, 100 μM resazurin, 50 μg/ml diaphorase) 1.2× Enzyme Mix (1× Buffer final concentration, with 0.875 μg/ml GAC, 1.56 mM NAD, 6.25 units/ml GDH) Stop Mix (6% SDS in ddH2O) Reaction Procedure 1. Add 1 μl compound in 100% DMSO 2. Add 40 μl of Enzyme Mix and incubate for 60 minute at room temperature 3. Add 10 μl of Substrate Mix to start reaction 4. Stop reaction with 25 μl of 6% SDS and read Ex544 Em 590
row,IC50,Structure (SMILES)
1,< 100 nM,"O=C(Cc1cccc(OC(F)(F)F)c1)Nc1nnc([C@H]2CCC[C@H](c3nnc(NC(=O)[C@H](O)c4ccccc4)s3)C2)s1 [Compound 365, (R)-2-hydroxy-2-phenyl-N-(5-((1S,3S)-3-(5-(2-(3-(trifluoromethoxy)phenyl)acetamido)-1,3,4-thiadiazol-2-yl)cyclohexyl)-1,3,4-thiadiazol-2-yl)acetamide]"
2,< 100 nM,"O=C(Cc1cccnc1)Nc1nnc([C@H]2CCC[C@H](c3nnc(NC(=O)Cc4cccnc4)s3)C2)s1 [Compound 28, N,N′-(5,5′-((1S,3S)-cyclohexane-1,3-diyl)bis(1,3,4-thiadiazole-5,2-diyl))bis(2-(pyridin-3-yl)acetamide)]"
3,< 100 nM,N#Cc1cccc(CC(=O)Nc2nnc([C@H]3CCC[C@H](c4nnc(NC(=O)Cc5cccc(CN)c5)s4)C3)s2)c1 [Compound 361]
4,100 to 500 nM,"O=C(CCc1ccccn1)Nc1nnc([C@H]2CCC[C@H](c3nnc(NC(=O)CCc4ccccn4)s3)C2)s1 [Compound 80, N,N′-(5,5′-((1S,3S)-cyclohexane-1,3-diyl)bis(1,3,4-thiadiazole-5,2-diyl))bis(3-(pyridin-2-yl)propanamide)]"
5,1000 to 2000 nM,"O=C(Nc1nnc([C@H]2CCC[C@H](c3nnc(NC(=O)C4CCCC4)s3)C2)s1)C1CCCC1 [Compound 62, N,N′-(5,5′-((1S,3S)-cyclohexane-1,3-diyl)bis(1,3,4-thiadiazole-5,2-diyl))dicyclopentanecarboxamide]"
6,< 100 nM,"O=C(Cc1cccc(OC(F)(F)F)c1)Nc1nnc([C@H]2CCC[C@H](c3nnc(NC(=O)Cc4cccc(N5CC(F)(F)C5)n4)s3)C2)s1 [Compound 388, 2-(6-(3,3-difluoroazetidin-1-yl)pyridin-2-yl)-N-(5-((1S,3S)-3-(5-(2-(3-(trifluoromethoxy)phenyl)acetamido)-1,3,4-thiadiazol-2-yl)cyclohexyl)-1,3,4-thiadiazol-2-yl)acetamide]"
7,< 100 nM,"COc1ccc(CC(=O)Nc2nnc([C@H]3CC[C@H](c4nnc(NC(=O)Cc5ccc(OC)cn5)s4)C3)s2)nc1 [Compound 347, N,N′-(5,5′-((1S,3S)-cyclopentane-1,3-diyl)bis(1,3,4-thiadiazole-5,2-diyl))bis(2-(5-methoxypyridin-2-yl)acetamide)]"
8,< 100 nM,"N#Cc1cccc(CC(=O)Nc2nnc([C@H]3CCC[C@H](c4nnc(NC(=O)Cc5cccc(OC(F)(F)F)c5)s4)C3)s2)n1 [Compound 375, 2-(6-cyanopyridin-2-yl)-N-(5-((1S,3S)-3-(5-(2-(3-(trifluoromethoxy)phenyl)acetamido)-1,3,4-thiadiazol-2-yl)cyclohexyl)-1,3,4-thiadiazol-2-yl)acetamide]"
9,< 100 nM,O=C(Cc1cccc(CO)c1)Nc1nnc([C@H]2CCC[C@H](c3nnc(NC(=O)Cc4cccc(CO)c4)s3)C2)s1 [Compound 351]
10,< 100 nM,"COc1ccccc1CC(=O)Nc1nnc([C@H]2CCC[C@H](c3nnc(NC(=O)Cc4ccccc4OC)s3)C2)s1 (single isomer, unassigned) [Compound 70]"
11,100 to 500 nM,"CC(C)C(=O)Nc1nnc([C@H]2CCC[C@H](c3nnc(NC(=O)C(C)C)s3)C2)s1 (single isomer, unassigned) [Compound 98]"
12,< 100 nM,"COc1ccccc1CC(=O)Nc1nnc([C@@H]2CC[C@@H](c3nnc(NC(=O)Cc4ccccc4OC)s3)C2)s1 (stereo in doubt) [Compound 291, N,N′-(5,5′-((1S,3S)-cyclopentane-1,3-diyl)bis(1,3,4-thiadiazole-5,2-diyl))bis(2-(2-methoxyphenyl)acetamide)]"
13,< 100 nM,"CN(C)c1cccc(CC(=O)Nc2nnc([C@H]3CCC[C@H](c4nnc(NC(=O)Cc5cccc(N(C)C)c5)s4)C3)s2)c1 [Compound 35, N,N′-(5,5′-((1S,3S)-cyclohexane-1,3-diyl)bis(1,3,4-thiadiazole-5,2-diyl))bis(2-(3-(dimethylamino)phenyl)acetamide)]"
